Experiments:
Assay type in all cases: cell-based, human
CD34+ HSPCs [1] = test: GFP knock-in at the CCR5 locus with purified i53 variants and CCR5-UBC-GFP AAV; flow cytometry; details: CCR5 locus; protein 0.4 mg/mL; MOIs 625 and 2500; both donors
Text: (§1) Chemically-modified single guide RNAs (sgRNAs) were used to edit CD34+ HSPCs at the HBA, CCR5, and IL2RG loci. The sgRNA sequences were modified by adding 2′-O-methyl-3′-phosphorothioate at the three terminal nucleotides of the 5′ and 3′ ends. The target sequences for the HBA, CCR5, and IL2RG sgRNA are as follows: HBA: 5′-[…]-3′ (SEQ ID NO: 78), CCR5: 5′-[…]-3′ (SEQ ID NO: 79) IL2RG: 5′-[…]-3′ (SEQ ID NO: 80). Cas9 protein (SpyFi Cas9) was purchased from Aldevron. The RNPs were complexed at a Cas9:sgRNA molar ratio of 1:2.5 at 25° C. for 10-15 min prior to electroporation. Cells were collected, counted, and pelleted at 180 g×7 min. The cell pellets were resuspended in Maxcyte buffer with complexed RNPs and electroporated using a Maxcyte EXPERT ATx Nucleofector. After electroporation cells were plated at 3.5×10^5 cells/mL in media supplemented with cytokines and the desired AAV donor added at 5.0×10^2-2.5×10^4 vector genomes/cell. 24 h after nucleofection, cells were spun down, washed once with media, and seeded into AAV-free media at a density of 3.5×10^5 cells/mL. […]
(§2) Rates of targeted integration of the HBA-UBC-GFP, CCR5-UBC-GFP, and IL2RG-UBC-GFP donors were measured using a Beckman Coulter CytoFLEX. […] Flow cytometry data were analyzed using FlowJo 10 software.

CD34+ HSPCs [2] = test: GFP knock-in at the HBA locus with purified i53 variants and HBA-UBC-GFP AAV; flow cytometry; details: HBA locus; protein 0.4 mg/mL; MOIs 625 and 2500; both donors
Text: as §1, §2

CD34+ HSPCs [3] = test: lentiviral-based pooled functional screen of i53 variant libraries at the HBB locus; NGS enrichment in mCherry+GFP+ vs mCherry+GFP- cells; details: MOI=2500
Method: CD34+ HSPC cells were transduced using lentivirus at MOIs of 0.25-1 at day 1 post thaw. Cells were concentrated using centrifugation (180 g×7 min), counted, and added at a concentration of 4×10^6 cells/mL to media containing lentivirus, cyclosporin A (5 μM, Sigma Aldrich) and Synperonic F108 (0.5 mg/mL, Sigma Aldrich). After 4 h of incubation, cells were spun down, washed once with media, and seeded into lentivirus-free media at a density of 3.5×10^5 cells/mL.
Chemically-modified single guide RNAs (sgRNAs) used to edit CD34+ HSPCs at the HBB locus were purchased from Synthego. […] Cells were collected, counted, and pelleted at 180 g×7 min. […]
Three days after transduction, cells were edited in triplicate or quadruplet at HBB as described above, using HBB-UBB-GFP donor AAV6 (MOI of 2.5×10^4 vector genomes/cell). […] The DNA concentration of each sample was measured using a Qubit 1×dsDNA BR assay kit (ThermoFisher).
An amplicon sequencing workflow was designed to sequence and quantify i53 variants within starting and post selection pools. […]
This approach was used to confirm sequence diversity in plasmid and lentiviral libraries prior to screening. For screening data analyses, a first quality control was performed on all runs to validate good values in number of mapped reads (>1e5 reads per sample), percent reads carried over from parent (from cloning), and overall distribution of sequences (no bias). […]

CD34+ HSPCs [4] = test: editing of CD34+ HSPCs with purified i53 variant proteins and HBB-UBC-GFP AAV donor; flow cytometry; details: HBB locus; protein 0.4 mg/mL; MOIs 625 and 2500; both donors
Method: Chemically-modified single guide RNAs (sgRNAs) used to edit CD34+ HSPCs at the HBB locus were purchased from Synthego. The sgRNA sequences were modified by adding 2′-O-methyl-3′-phosphorothioate at the three terminal nucleotides of the 5′ and 3′ ends. The target sequence for the HBB sgRNA is as follows: HBB: 5′[…]-3′ (SEQ ID NO: 74). Cas9 protein (SpyFi Cas9) was purchased from Aldevron. The RNPs were complexed at a Cas9:sgRNA molar ratio of 1:2.5 at 25° C. for 10-15 min prior to electroporation. Cells were collected, counted, and pelleted at 180 g×7 min. The cell pellets were resuspended in Maxcyte buffer with complexed RNPs and electroporated using a Maxcyte EXPERT ATx Nucleofector. After electroporation cells were plated at 3.5×10^5 cells/mL in media supplemented with cytokines and the desired AAV donor added at 5.0×10^2-2.5×10^4 vector genomes/cell. 24 h after nucleofection, cells were spun down, washed once with media, and seeded into AAV-free media at a density of 3.5×10^5 cells/mL.
CD34+ HPSCs were edited with protein variants 3 days post thaw and were harvested 2 days post nucleofection for NGS analysis or 3-5 days post nucleofection for GFP expression analysis. Editing reactions with proteins at a given concentration were repeated in duplicate or triplicate (either using the same CD34+ HSPC donor or across multiple donors).
Rates of targeted integration of the HBB UBC GFP donor were measured using a Beckman Coulter CytoFLEX. DAPI (Miltenyi Biotec) was used to discriminate live and dead cells. Flow cytometry data were analyzed using FlowJo 10 software.

CD34+ HSPCs [5] = test: GFP knock-in at the IL2RG locus with purified i53 variants and IL2RG-UBC-GFP AAV; flow cytometry; details: protein 0.4 mg/mL, MOIs 625 and 2500, both donors
Text: as §1, §2

| Substance | % GFP incorporation relative to the no protein control (CD34+ HSPCs [1]) | % GFP incorporation relative to the no protein control (CD34+ HSPCs [2]) | differential variant enrichment in the mCherry+GFP+ population relative to parent L67H (CD34+ HSPCs [3]; combinatorial library at positions 12 and 14, iterating on L67H) | % GFP incorporation relative to the no protein control (CD34+ HSPCs [4]) | % GFP incorporation relative to the no protein control (CD34+ HSPCs [5]) | differential variant enrichment in the mCherry+GFP+ population relative to parent L67R (CD34+ HSPCs [3]; combinatorial library at positions 12 and 14, parent L67R) |
| --- | --- | --- | --- | --- | --- | --- |
| T12V.T14H.L67H: purified hit mutant of i53 | increase % GFP incorporation relative to the no protein control | increase % GFP incorporation relative to the no protein control | emerged as hits relative to parent L67H | increase % GFP incorporation relative to the no protein control | increase % GFP incorporation relative to the no protein control | – |
| T12Y.T14E.L67R: purified hit mutant of i53 | increase % GFP incorporation relative to the no protein control | increase % GFP incorporation relative to the no protein control | – | increase % GFP incorporation relative to the no protein control | increase % GFP incorporation relative to the no protein control | particularly beneficial to HDR levels at HBB relative to parent T12 T14 L67R |

From US20260207777A1, “IMPROVED PEPTIDE INHIBITORS OF P53 BINDING PROTEIN 53BP1” (KAMAU THERAPEUTICS, INC., priority 2022, published 2026)
